Holding throughout (type): cell-based
Assay [1] relates to rat hepatic stellate cells. The assay can be described thus: TUNEL staining of cultured rat hepatic stellate cells. The following applies: 1.5 μmol/L gliotoxin, two hours. From the text:
Rat and human hepatic stellate cells and rat liver tissue were fixed in 4% paraformaldehyde in PBS or 10% formalin in PBS, respectively, before being stained with Giemsa. DNA fragmentation was examined by labeling of 3′-OH DNA ends by the enzymatic addition of digoxygenin-labeled deoxyuridine triphosphate (dUTP) using terminal deoxynucleotidyl transferase using a kit from Boehringer essentially as described by the manufacturer. Rat liver tissue sections were pretreated with diethyl pyrocarbonate as described previously (Stahelin et al., J. Clin. Pathol. Mol. Pathol. (1998) 51:204-208) to reduce nonspecific reaction.
DNA strand breaks were also characterized by TUNEL staining. Culture-activated (14-day) rat hepatic stellate cells were treated with 0.05% (vol/vol) DMSO or 1.5 μmol/L gliotoxin for two hours and DNA strand breaks examined by TUNEL staining as outlined in Materials and Methods.

Assay [2] concerns intracellular Ca2+ in rat hepatic stellate cells. The assay can be described thus: Confocal microscopy of fluo-3 (intracellular calcium). The following applies: 1.5 μmol/L gliotoxin. As for the experimental part: Intracellular calcium concentrations were examined by preloading activated hepatic stellate cells seeded onto 35-mm diameter dishes with 2.5 μmol/L Fluo-3AM for two hours. Mitochondrial integrity was determined by coloading cells with […] TMRM and 1 μmol/M calcein-AM for three hours. After loading, the culture medium was removed and the cells were washed extensively with confocal buffer (145 mmol/L NaCl, 5 mml/L KCl, 1 mmol/L MgSO4, 1 mmol/L NaH2PO4, 10 mmol/L HEPES, 25 mmol/L glucose, 1 mmol/L CaCl2 and 2 mg/mL bovine serum albumin, pH 7.4) and incubated at 37° C. in 2 mL confocal buffer containing 1.5 μmol/L gliotoxin or DMSO vehicle control.
Fluo-3 and calcein fluorescence were excited at 488 nm and collected at 515-530 nm using a band width filter. TMRM was excited at 543 nm and collected at wavelengths greater than 570 nm.
MPT results in futile Ca^2+ cycling by mitochondria, which enhances the likelihood of cell death (Crompton et al., Biochem. J. (1999) 341: 233-249). The role of the MPT in the late events of gliotoxin apoptosis was also therefore assessed by measuring intracellular calcium levels. Culture-activated (14-day) rat hepatic stellate cells in six-well plates were loaded with fluo-3 and fluorescence imaged as outlined in the Materials and methods section after treatment with DMSO control or 1.5 μmol/L gliotoxin.

For the next assay, the system named is Bcl-2 protein. The assay can be described thus: Western blotting for Bcl-2 in hepatic stellate cells. As to conditions: cycloheximide 18 hours with TIMP-1 (200 ng/ml and 100 ng/ml both printed) versus cycloheximide alone. As for the experimental part: Cultured hepatic stellate cells were harvested with a sterile cell scraper, pelleted by centrifugation, and then resuspended in 500 μl of TE buffer (10 mmol/Tris-HCl, 1 mmol/liter EDTA, pH 8.0) before sonication for 15 min. 100 μl of PicoGreen (Molecular Probes, Inc., Eugene, Oreg.) at 1:200 dilution was added to 100 μl of sample and incubated in the dark at room temperature for 5 min. Standards were made from herring sperm DNA. Fluorescence was measured using a Cytofluor II Microwell Fluorescence reader (Perceptive Biosystems, Framingham, Mass.) at standard wavelengths (excitation 485 nm, emission 530 nm). Concentrations of double-stranded DNA in the samples were calculated from the standard curve. […]
The protein Bcl-2 regulates the properties of cells to undergo apoptosis by interpolating into the mitochondria membrane (Hengartner, supra). […] To define changes in the protein level of Bcl-2, extracts from hepatic stellate cells treated with cycloheximide for 18 hours, either in the presence and absence of 200 ng/ml TIMP-1, were analyzed by western blotting. Equal quantities (determined by protein concentration) of protein extracts from hepatic stellate cells exposed to: serum alone; cycloheximide alone; or cycloheximide with TIMP-1 protein (100 ng/ml) were assessed by blotting.
(A western blot detects proteins with antibodies after separation by electrophoresis.)

Turning to `CN1C(=O)[C@]23CC4=CC=C[C@H](O)[C@H]4N2C(=O)[C@@]1(CO)SS3` [gliotoxin], in assay [1], the TUNEL staining result was “extensive TUNEL-positive staining”. For the same molecule, the “intracellular Ca2+ levels” value in assay [2] is given as “do not rise until two hours of incubation”.
Regarding “TIMP-1: recombinant tissue inhibitor of matrix metalloproteases 1 (Biogenesis)”, the Bcl-2 protein expression entry in the assay on Bcl-2 protein is recorded as “enhanced levels of Bcl-2 protein expression”.

The values are drawn from US20080220056A1, “Treatment for liver disease” (UNIVERSITY OF SOUTHAMPTON, priority 2002, published 2008).
